Results: patent publication US11279733B2, “Peptide antibiotics” (priority 2017, dated 2022)
In brackets after ≈: the same amount, converted by molar mass. Positions of bridges follow the written chain, without caps; N, C: chain ends. Non-standard residues stand in square brackets, D forms with d. Residues, ends and D or L forms follow the SMILES beside them. *: point of attachment. Decanoyl(3R-OH) = CCCCCCC[C@@H](O)CC(=O)*; Heptanoyl(6-Me) = CC(C)CCCCC(=O)*; Undecanoyl = CCCCCCCCCCC(=O)*; dDab = NCC[C@@H](N)C(=O)O; Nle = CCCC[C@H](N)C(=O)O; dDap = NC[C@@H](N)C(=O)O; Dab = NCC[C@H](N)C(=O)O; Nva = CCC[C@H](N)C(=O)O; Abu = CC[C@H](N)C(=O)O

Experiments:
[1] = system: K. pneumoniae ATCC BAA-2146, NDM-1 pos; conditions: ATCC BAA-2146
How it was run: (§1)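 Mid-log cultures grown in Mueller Hinton broth at 37° C were tested by 2-fold broth microdilution at 5×10^5 CFU/mL final. Compounds were dissolved in water and tested over a final range of 32 to 0.015 μg/mL.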

[2] = system: P. aeruginosa GN_105, PmxR; conditions: GN 105, PmxR
How it was run: as §1

A. baumannii GN_093 PmxR = conditions: GN 093 PmxR
How it was run: as §1

E. coli ATCC 25922 = conditions: ATCC 25922
How it was run: as §1

[3] = system: K. pneumoniae GN_102 PmxR; conditions: GN 102 PmxR
How it was run: as §1

P. aeruginosa ATCC 27853 = conditions: ATCC 27853
How it was run: as §1

[4] = system: K. pneumoniae ATCC 700603, MDR; conditions: ATCC 700603
How it was run: as §1

K. pneumoniae ATCC 13883 = conditions: ATCC 13883
How it was run: as §1

[5] = system: K. pneumoniae GN_106, PmxR; conditions: GN 106, PmxR
How it was run: as §1

A. baumannii ATCC 19606 = conditions: ATCC 19606
How it was run: as §1

[6] = system: P. aeruginosa GN_043, PmxR; conditions: P. aeruginosa GN_043, PmxR
How it was run: as §1

in vitro = conditions: human
Protocol: Cytotoxicity of the synthesised peptides was evaluated by comparison with commercially available colistin (polymyxin E), polymyxin B (Sigma chemical Co., St. Louis, Mo., U.S.A.) and synthetic octapeptin C4 by conducting lactate dehydrogenase (LDH) assay. CC50 values calculated based on curve fitting of dose dependent inhibition of cell growth represented the cytotoxicity of the peptide. Human kidney 2 (HK2) cells were seeded as 2000 cells per well in a 384 well cell culture plate in a final volume of 20 μL in DMEM/F12 medium (Invitrogen #11330057), in which 10% of FBS was added. Cells were incubated for 24 hours at 37° C., 5% CO2 to allow cells to attach to the plates. Similar conditions were employed for HEK293 and HepG2 cytotoxicity assays.
Cytotoxicity to HEK293 and HepG2 cells was determined using the resazurin assay (McMillian, M. K.; Li, L.; Parker, J. B.; Patel, L.; Zhong, Z.; Gunnett, J. W.; Powers, W. J.; Johnson, M. D. An improved resazurin-based cytotoxicity assay for hepatic cells; Cell Biol. Toxicol. 2002, 18, 157-173; O'Brien, J.; Wilson, I.; Orton, T.; Pognan, F. Investigation of the Alamar Blue (resazurin) fluorescent dye for the assessment of mammalian cell cytotoxicity. Eur. J. Biochem. 2000, 267, 5421-5426). In brief, HEK293 and HepG2 cells were seeded at 4000 cells/well in black-wall, clear-bottom 384-well plates (Corning, Australia) and incubated for 24 h at 37° C., 5% CO2. Compounds were then added into each well. After 24 h incubation, 5 μM resazurin was added per well and incubated at 37° C. for 2 h. Fluorescence intensity was then read using a Polarstar Omega with excitation/emission 560/590. The data was then analyzed using GraphPad Prism 6 software. CC50 values were determined using GraphPad Prism 6 software (Inc. La Jolla, Calif.).

| Compound | MIC K. pneumoniae ATCC BAA-2146, NDM-1 pos [1] [µg/mL] | MIC P. aeruginosa GN_105, PmxR [2] [µg/mL] | MIC A. baumannii GN_093 PmxR (A. baumannii GN_093 PmxR) [µg/mL] | MIC E. coli ATCC 25922 (E. coli ATCC 25922) [µg/mL] | MIC K. pneumoniae GN_102 PmxR [3] [µg/mL] | MIC P. aeruginosa ATCC 27853 (P. aeruginosa ATCC 27853) [µg/mL] | MIC K. pneumoniae ATCC 700603, MDR [4] [µg/mL] | MIC K. pneumoniae ATCC 13883 (K. pneumoniae ATCC 13883) [µg/mL] | MIC K. pneumoniae GN_106, PmxR [5] [µg/mL] | MIC A. baumannii ATCC 19606 (A. baumannii ATCC 19606) [µg/mL] | MIC P. aeruginosa GN_043, PmxR [6] [µg/mL] | CC50 at 24 h (in vitro) [µM] |
| --- | --- | --- | --- | --- | --- | --- | --- | --- | --- | --- | --- | --- |
| CCCCCCC[C@@H](O)CC(=O)N[C@H](CCN)C(=O)N[C@H]1CCNC(=O)[C@H](CC(C)C)NC(=O)[C@H](CCN)NC(=O)[C@H](CCN)NC(=O)[C@H]([C@@H](C)O)NC(=O)[C@@H](Cc2ccccc2)NC(=O)[C@H](CCN)NC1=O [compound 9289, 3(R)OH-nC9CO-D-Dab-cyc[L-Dab-L-Dab-D-Phe-L-Thr-L-Dab-L-Dab-L-Leu]] ({Decanoyl(3R-OH)}-[dDab][Dab][Dab][dF]T[Dab][Dab]L; lactam 2-C) | 2 (≈ 1.94 µM) | >32 | >32 | 2 (≈ 1.94 µM) | >32 | 1 (≈ 0.969 µM) | 1 (≈ 0.969 µM) | 2 (≈ 1.94 µM) | >32 | 2 (≈ 1.94 µM) | >32 | > 300 |
| CC(C)CCCCC(=O)N[C@H](CCN)C(=O)N[C@H]1CCNC(=O)[C@H](CC(C)C)NC(=O)[C@H](CCN)NC(=O)[C@H](CCN)NC(=O)[C@H](CC(C)C)NC(=O)[C@@H](Cc2ccccc2)NC(=O)[C@H](CCN)NC1=O [compound 9290, 6Me-nC6CO-D-Dab-cyc[L-Dab-L-Dab-D-Phe-L-Leu-L-Dab-L-Dab-L-Leu]] ({Heptanoyl(6-Me)}-[dDab][Dab][Dab][dF]L[Dab][Dab]L; lactam 2-C) | 4 (≈ 4 µM) | 16 (≈ 16 µM) | 16 (≈ 16 µM) | 8 (≈ 8 µM) | 4 (≈ 4 µM) | 2 (≈ 2 µM) | 4 (≈ 4 µM) | 8 (≈ 8 µM) | 4 (≈ 4 µM) | 16 (≈ 16 µM) | 1 (≈ 1 µM) | > 300 |
| CCCCCCC[C@@H](O)CC(=O)N[C@H](CN)C(=O)N[C@H]1CCNC(=O)[C@H](CC(C)C)NC(=O)[C@H](CCN)NC(=O)[C@H](CCN)NC(=O)[C@H](C(C)C)NC(=O)[C@@H](Cc2ccccc2)NC(=O)[C@H](CCN)NC1=O [compound 9291, 3(R)OH-nC9CO-D-Dap-cyc[L-Dab-L-Dab-D-Phe-L-Val-L-Dab-L-Dab-L-Leu]] ({Decanoyl(3R-OH)}-[dDap][Dab][Dab][dF]V[Dab][Dab]L; lactam 2-C) | 8 (≈ 7.87 µM) | 32 (≈ 31.5 µM) | 32 (≈ 31.5 µM) | 2 (≈ 1.97 µM) | 32 (≈ 31.5 µM) | 2 (≈ 1.97 µM) | 8 (≈ 7.87 µM) | 8 (≈ 7.87 µM) | 32 (≈ 31.5 µM) | >32 | 2 (≈ 1.97 µM) | > 300 |
| CCCCCCC[C@@H](O)CC(=O)N[C@H](CN)C(=O)N[C@H]1CCNC(=O)[C@H](CC(C)C)NC(=O)[C@H](CCN)NC(=O)[C@H](CCN)NC(=O)[C@H](CC)NC(=O)[C@@H](Cc2ccccc2)NC(=O)[C@H](CCN)NC1=O [compound 9292, 3(R)OH-nC9CO-D-Dap-cyc[L-Dab-L-Dab-D-Phe-L-Abu-L-Dab-L-Dab-L-Leu]] ({Decanoyl(3R-OH)}-[dDap][Dab][Dab][dF][Abu][Dab][Dab]L; lactam 2-C) | 4 (≈ 3.99 µM) | 8 (≈ 7.98 µM) | 8 (≈ 7.98 µM) | 4 (≈ 3.99 µM) | 2 (≈ 2 µM) | 2 (≈ 2 µM) | 4 (≈ 3.99 µM) | 4 (≈ 3.99 µM) | 4 (≈ 3.99 µM) | 8 (≈ 7.98 µM) | 2 (≈ 2 µM) | > 300 |
| CCCCCCC[C@@H](O)CC(=O)N[C@H](CN)C(=O)N[C@H]1CCNC(=O)[C@H](CC(C)C)NC(=O)[C@H](CCN)NC(=O)[C@H](CCN)NC(=O)[C@H](CCC)NC(=O)[C@@H](Cc2ccccc2)NC(=O)[C@H](CCN)NC1=O [compound 9293, 3(R)OH-nC9CO-D-Dap-cyc[L-Dab-L-Dab-D-Phe-L-NorVal-L-Dab-L-Dab-L-Leu]] ({Decanoyl(3R-OH)}-[dDap][Dab][Dab][dF][Nva][Dab][Dab]L; lactam 2-C) | 4 (≈ 3.94 µM) | 4 (≈ 3.94 µM) | 4 (≈ 3.94 µM) | 4 (≈ 3.94 µM) | 2 (≈ 1.97 µM) | 2 (≈ 1.97 µM) | 4 (≈ 3.94 µM) | 4 (≈ 3.94 µM) | 2 (≈ 1.97 µM) | 8 (≈ 7.87 µM) | 1 (≈ 0.984 µM) | > 300 |
| CCCCCCC[C@@H](O)CC(=O)N[C@H](CN)C(=O)N[C@H]1CCNC(=O)[C@H](CC(C)C)NC(=O)[C@H](CCN)NC(=O)[C@H](CCN)NC(=O)[C@H](CCCC)NC(=O)[C@@H](Cc2ccccc2)NC(=O)[C@H](CCN)NC1=O [compound 9294, 3(R)OH-nC9CO-D-Dap-cyc[L-Dab-L-Dab-D-Phe-L-NorLeu-L-Dab-L-Dab-L-Leu]] ({Decanoyl(3R-OH)}-[dDap][Dab][Dab][dF][Nle][Dab][Dab]L; lactam 2-C) | 4 (≈ 3.88 µM) | 4 (≈ 3.88 µM) | 4 (≈ 3.88 µM) | 4 (≈ 3.88 µM) | 2 (≈ 1.94 µM) | 2 (≈ 1.94 µM) | 4 (≈ 3.88 µM) | 4 (≈ 3.88 µM) | 2 (≈ 1.94 µM) | 8 (≈ 7.76 µM) | 1 (≈ 0.971 µM) | 193 |
| CCCCCCC[C@@H](O)CC(=O)N[C@H](CN)C(=O)N[C@H]1CCNC(=O)[C@H](CC(C)C)NC(=O)[C@H](CCN)NC(=O)[C@H](CCN)NC(=O)[C@H]([C@@H](C)O)NC(=O)[C@@H](Cc2ccccc2)NC(=O)[C@H](CCN)NC1=O [compound 9295, 3(R)OH-nC9CO-D-Dap-cyc[L-Dab-L-Dab-D-Phe-L-Thr-L-Dab-L-Dab-L-Leu]] ({Decanoyl(3R-OH)}-[dDap][Dab][Dab][dF]T[Dab][Dab]L; lactam 2-C) | 4 (≈ 3.93 µM) | 4 (≈ 3.93 µM) | 4 (≈ 3.93 µM) | 2 (≈ 1.96 µM) | 2 (≈ 1.96 µM) | 2 (≈ 1.96 µM) | 4 (≈ 3.93 µM) | 4 (≈ 3.93 µM) | 4 (≈ 3.93 µM) | 4 (≈ 3.93 µM) | 2 (≈ 1.96 µM) | > 300 |
| CCCCCCCCCCC(=O)N[C@H](CN)C(=O)N[C@H]1CCNC(=O)[C@H](CC(C)C)NC(=O)[C@H](CCN)NC(=O)[C@H](CCN)NC(=O)[C@H](CC(C)C)NC(=O)[C@@H](Cc2ccccc2)NC(=O)[C@H](CCN)NC1=O [compound 9296, nC10CO-D-Dap-cyc[L-Dab-L-Dab-D-Phe-L-Leu-L-Dab-L-Dab-L-Leu]] (Undecanoyl-[dDap][Dab][Dab][dF]L[Dab][Dab]L; lactam 2-C) | 4 (≈ 3.89 µM) | 32 (≈ 31.1 µM) | 32 (≈ 31.1 µM) | 4 (≈ 3.89 µM) | 2 (≈ 1.94 µM) | 2 (≈ 1.94 µM) | 2 (≈ 1.94 µM) | 4 (≈ 3.89 µM) | 4 (≈ 3.89 µM) | 16 (≈ 15.6 µM) | 1 (≈ 0.972 µM) | 63 |
